From ChEMBL document CHEMBL3046206, “Synthesis of new 4-(2,5-dimethylpyrrol-1-yl)/4-pyrrol-1-yl benzoic acid hydrazide analogs and some derived oxadiazole, triazole and pyrrole ring systems: a novel class of potential antibacterial, antifungal and antitubercular agents” (Med Chem Res, 2013)
Converted amounts (≈) assume the structure as drawn.

Columns and labels:
[1] = test system: Mycobacterium tuberculosis; assay: Antimycobacterial activity against Mycobacterium tuberculosis H37Rv after 21 days by broth dilution method; type: functional; conditions: 504 h
[2] = test system: Enterococcus faecalis; assay: Antibacterial activity against Enterococcus faecalis after 18 hr by broth microdilution technique; type: functional
[3] = test system: Vero; assay: Cytotoxicity against Chlorocebus aethiops (African green monkey) Vero cells after 72 hr by MTT assay; type: cell-based; conditions: Chlorocebus sabaeus
[4] = test system: Staphylococcus aureus; assay: Antibacterial activity against Staphylococcus aureus after 18 hr by broth microdilution technique; type: functional
[5] = test system: Escherichia coli; assay: Antibacterial activity against Escherichia coli after 18 hr by broth microdilution technique; type: functional
[6] = test system: Klebsiella pneumoniae; assay: Antibacterial activity against Klebsiella pneumoniae after 18 hr by broth microdilution technique; type: functional
[7] = test system: Bacillus subtilis; assay: Antibacterial activity against Bacillus subtilis after 18 hr by broth microdilution technique; type: functional
[8] = test system: A549; assay: Cytotoxicity against Homo sapiens (human) A549 cells after 72 hr by MTT assay; type: cell-based; conditions: A549, 72 h
[9] = test system: Aspergillus niger; assay: Antifungal activity against Aspergillus niger after 18 hr by broth microdilution technique; type: functional
[10] = test system: Pseudomonas aeruginosa; assay: Antibacterial activity against Pseudomonas aeruginosa after 18 hr by broth microdilution technique; type: functional
[11] = test system: Candida tropicalis; assay: Antifungal activity against Candida tropicalis after 18 hr by broth microdilution technique; type: functional
[12] = test system: Saccharomyces cerevisiae; assay: Antifungal activity against Saccharomyces cerevisiae after 18 hr by broth microdilution technique; type: functional

Structure (SMILES) | MIC [1] | MIC [2] | IC50 [3] | MIC [4] | MIC [5] | MIC [6] | MIC [7] | IC50 [8] | MIC [9] | MIC [10] | MIC [11] | MIC [12]
O=C(NNC(=O)c1ccccc1Br)c1ccc(-n2cccc2)cc1 | 8 µg/mL (≈ 20.8 µM) | 62.5 µg/mL (≈ 163 µM) | 198 µM | 62.5 µg/mL (≈ 163 µM) | 16 µg/mL (≈ 41.6 µM) | > 500 µg/mL | 16 µg/mL (≈ 41.6 µM) | 201 µM | 16 µg/mL (≈ 41.6 µM) | 16 µg/mL (≈ 41.6 µM) | 8 µg/mL (≈ 20.8 µM) | 31.2 µg/mL (≈ 81.3 µM)
Brc1ccccc1-c1nnc(-c2ccc(-n3cccc3)cc2)o1 | 8 µg/mL (≈ 21.8 µM) | 31.2 µg/mL (≈ 85.3 µM) | 258 µM | 31.2 µg/mL (≈ 85.3 µM) | 8 µg/mL (≈ 21.8 µM) | > 500 µg/mL | 8 µg/mL (≈ 21.8 µM) | 252 µM | 16 µg/mL (≈ 43.7 µM) | 8 µg/mL (≈ 21.8 µM) | 4 µg/mL (≈ 10.9 µM) | 31.2 µg/mL (≈ 85.3 µM)
O=C(NNC(=O)c1ccc(F)c(C(F)(F)F)c1)c1ccc(-n2cccc2)cc1 | 8 µg/mL (≈ 20.4 µM) | 31.2 µg/mL (≈ 79.9 µM) | 196 µM | 62.5 µg/mL (≈ 160 µM) | 8 µg/mL (≈ 20.4 µM) | > 500 µg/mL | 16 µg/mL (≈ 40.9 µM) | 200 µM | 8 µg/mL (≈ 20.4 µM) | 8 µg/mL (≈ 20.4 µM) | 4 µg/mL (≈ 10.2 µM) | 16 µg/mL (≈ 40.9 µM)
Clc1ccc(-c2nnc(-c3ccc(-n4cccc4)cc3)o2)cc1 | 2 µg/mL (≈ 6.22 µM) | 16 µg/mL (≈ 49.7 µM) | 253 µM | 31.2 µg/mL (≈ 97.1 µM) | 4 µg/mL (≈ 12.4 µM) | > 500 µg/mL | 4 µg/mL (≈ 12.4 µM) | 256 µM | 16 µg/mL (≈ 49.7 µM) | 4 µg/mL (≈ 12.4 µM) | 4 µg/mL (≈ 12.4 µM) | 8 µg/mL (≈ 24.9 µM)
Cc1ccc(C)n1-c1ccc(-c2n[nH]c(=S)n2N)cc1 | 4 µg/mL (≈ 14 µM) | 16 µg/mL (≈ 56.1 µM) | 160 µM | 16 µg/mL (≈ 56.1 µM) | 500 µg/mL (≈ 1750 µM) | 500 µg/mL (≈ 1750 µM) | 31.2 µg/mL (≈ 110 µM) | 170 µM | 4 µg/mL (≈ 14 µM) | 500 µg/mL (≈ 1750 µM) | 2 µg/mL (≈ 7.01 µM) | 4 µg/mL (≈ 14 µM)
CC(=O)N1N=C(c2ccc(-n3c(C)ccc3C)cc2)OC1c1ccc(Br)cc1 (stereo not given) | 8 µg/mL (≈ 18.3 µM) | 31.2 µg/mL (≈ 71.3 µM) | 195 µM | 16 µg/mL (≈ 36.5 µM) | 500 µg/mL (≈ 1140 µM) | 31.2 µg/mL (≈ 71.3 µM) | 8 µg/mL (≈ 18.3 µM) | 195 µM | 16 µg/mL (≈ 36.5 µM) | 500 µg/mL (≈ 1140 µM) | 8 µg/mL (≈ 18.3 µM) | 31.2 µg/mL (≈ 71.3 µM)
Cc1ccc(C)n1NC(=O)c1ccc(-n2c(C)ccc2C)cc1 | 2 µg/mL (≈ 6.51 µM) | 16 µg/mL (≈ 52 µM) | 230 µM | 2 µg/mL (≈ 6.51 µM) | 500 µg/mL (≈ 1630 µM) | 62.5 µg/mL (≈ 203 µM) | 16 µg/mL (≈ 52 µM) | 225 µM | 16 µg/mL (≈ 52 µM) | 500 µg/mL (≈ 1630 µM) | 4 µg/mL (≈ 13 µM) | 16 µg/mL (≈ 52 µM)
CC(=O)N1N=C(c2ccc(-n3c(C)ccc3C)cc2)OC1c1c(Cl)cccc1Cl (stereo not given) | 2 µg/mL (≈ 4.67 µM) | 2 µg/mL (≈ 4.67 µM) | 220 µM | 2 µg/mL (≈ 4.67 µM) | 16 µg/mL (≈ 37.4 µM) | 62.5 µg/mL (≈ 146 µM) | 4 µg/mL (≈ 9.34 µM) | 224 µM | 4 µg/mL (≈ 9.34 µM) | 8 µg/mL (≈ 18.7 µM) | 4 µg/mL (≈ 9.34 µM) | 16 µg/mL (≈ 37.4 µM)
O=[N+]([O-])c1cccc(-c2nnc(-c3ccc(-n4cccc4)cc3)o2)c1 | 8 µg/mL (≈ 24.1 µM) | 31.2 µg/mL (≈ 94 µM) | 251 µM | 31.2 µg/mL (≈ 94 µM) | 8 µg/mL (≈ 24.1 µM) | > 500 µg/mL | 8 µg/mL (≈ 24.1 µM) | 256 µM | 31.2 µg/mL (≈ 94 µM) | 8 µg/mL (≈ 24.1 µM) | 31.2 µg/mL (≈ 94 µM) | 31.2 µg/mL (≈ 94 µM)
CC(=O)N1N=C(c2ccc(-n3c(C)ccc3C)cc2)OC1c1ccccc1Cl (stereo not given) | 8 µg/mL (≈ 20.3 µM) | 31.2 µg/mL (≈ 79.3 µM) | 201 µM | 16 µg/mL (≈ 40.6 µM) | 500 µg/mL (≈ 1270 µM) | 31.2 µg/mL (≈ 79.3 µM) | 8 µg/mL (≈ 20.3 µM) | 206 µM | 16 µg/mL (≈ 40.6 µM) | 500 µg/mL (≈ 1270 µM) | 8 µg/mL (≈ 20.3 µM) | 31.2 µg/mL (≈ 79.3 µM)
O=C(NNC(=O)c1ccc([N+](=O)[O-])cc1)c1ccc(-n2cccc2)cc1 | 8 µg/mL (≈ 22.8 µM) | 31.2 µg/mL (≈ 89.2 µM) | 190 µM | 62.5 µg/mL (≈ 178 µM) | 16 µg/mL (≈ 45.7 µM) | > 500 µg/mL | 16 µg/mL (≈ 45.7 µM) | 198 µM | 31.2 µg/mL (≈ 89.2 µM) | 16 µg/mL (≈ 45.7 µM) | 31.2 µg/mL (≈ 89.2 µM) | 31.2 µg/mL (≈ 89.2 µM)
O=C(NNC(=O)c1ccccc1[N+](=O)[O-])c1ccc(-n2cccc2)cc1 | 8 µg/mL (≈ 22.8 µM) | 31.2 µg/mL (≈ 89.2 µM) | 182 µM | 62.5 µg/mL (≈ 178 µM) | 31.2 µg/mL (≈ 89.2 µM) | > 500 µg/mL | 16 µg/mL (≈ 45.7 µM) | 205 µM | 31.2 µg/mL (≈ 89.2 µM) | 16 µg/mL (≈ 45.7 µM) | 31.2 µg/mL (≈ 89.2 µM) | 31.2 µg/mL (≈ 89.2 µM)
CC(=O)NNC(=O)c1ccc(-n2c(C)ccc2C)cc1 | 4 µg/mL (≈ 14.7 µM) | 31.2 µg/mL (≈ 115 µM) | 172 µM | 31.2 µg/mL (≈ 115 µM) | 500 µg/mL (≈ 1840 µM) | 500 µg/mL (≈ 1840 µM) | 16 µg/mL (≈ 59 µM) | 180 µM | 62.5 µg/mL (≈ 230 µM) | 500 µg/mL (≈ 1840 µM) | 62.5 µg/mL (≈ 230 µM) | 62.5 µg/mL (≈ 230 µM)
CC(=O)N1N=C(c2ccc(-n3c(C)ccc3C)cc2)OC1c1ccc(O)cc1 (stereo not given) | 16 µg/mL (≈ 42.6 µM) | 31.2 µg/mL (≈ 83.2 µM) | 187 µM | 31.2 µg/mL (≈ 83.2 µM) | 62.5 µg/mL (≈ 166 µM) | 31.2 µg/mL (≈ 83.2 µM) | 16 µg/mL (≈ 42.6 µM) | 190 µM | 8 µg/mL (≈ 21.3 µM) | 62.5 µg/mL (≈ 166 µM) | 8 µg/mL (≈ 21.3 µM) | 31.2 µg/mL (≈ 83.2 µM)
CC(=O)N1N=C(c2ccc(-n3c(C)ccc3C)cc2)OC1c1ccc(N(C)C)cc1 (stereo not given) | 16 µg/mL (≈ 39.8 µM) | 31.2 µg/mL (≈ 77.6 µM) | 175 µM | 31.2 µg/mL (≈ 77.6 µM) | 500 µg/mL (≈ 1240 µM) | 31.2 µg/mL (≈ 77.6 µM) | 16 µg/mL (≈ 39.8 µM) | 186 µM | 31.2 µg/mL (≈ 77.6 µM) | 500 µg/mL (≈ 1240 µM) | 31.2 µg/mL (≈ 77.6 µM) | 31.2 µg/mL (≈ 77.6 µM)
